In data set [1] the test system is Staphylococcus aureus VRSA2 (Pennsylvania HIP 11983) in THP-1 macrophages. Put plainly: In vitro intracellular activity in infected THP-1 macrophages, VRSA2. It counts as cell-based. The conditions noted are these: for Cstatic / Emax (95% CI): VRSA2, THP-1 macrophages, 24 hours. Here is the method:
(§1) For studies of Defensin2114, […] of S. aureus were used: ATCC25923 (MSSA), MRSA (clinical septicaemia isolate, Statens Serum Institute, ref. no. 1-15479) and VRSA2 (Pennsylvania HIP 11983).
(§2) Overnight culture of bacteria was opsonized for 45 min with human serum (AB positive, Lonza, USA). Afterwards the bacteria were tittered using a spectrophotometer (CECIL 2040) and THP-1 macrophages were counted and then infected with 4 bacteria/cell. THP-1 cells were cultured in RPMI 1640 medium supplemented with fetal calf serum.
(§3) The bacteria were incubated with cells for 1 hour at 37° C., CO2 5%, to allow phagocytosis.
(§4) After 1 hour of incubation the infected cells were incubated 45 min with Gentamicin (50 micrograms/mL) to eradicate remaining non-phagocytosed bacteria. To remove Gentamicin after incubation cells were washed 3× with PBS. After the third wash, cells were re-suspended in RPMI 1640 medium (+10% fetal calf serum) and Plectasin or Defensin2114 was added at desired concentrations (0-128×MIC). One sample was incubated with Gentamicin at 1×MIC for control of intracellular growth. In studies of Defensin2114 the activity was compared to that of vancomycin and daptomycin.
(§5) Cells were incubated in 6-well plates for 24 hours at 37° C., CO2 5%.
(§6) After incubation cells were washed in PBS and subsequently re-suspended in sterile water to release intracellular bacteria.
(§7) Samples were diluted regarding to the expected amount of CFU and spread on TSA plates and incubated at 35° C. overnight. After 24 hours incubation the CFU were counted.
(§8) The samples may be stored at −20° C. for up to one week. Samples were sonicated and proteins titered as described by Lowry et al. hereby obtaining results as CFU/mg protein. All samples were tested in triplicates.
(§9) In vitro intracellular dose-response studies: For analysis of dose-effect relationships, the Hill-equation (slope=1) was employed to calculate the maximal relative efficacy, Emax, static concentration (Cstatic) and goodness-of-fit. These parameters were determined using non-linear regression.

In data set [2] the test system is Staphylococcus aureus ATCC25923 (MSSA) in THP-1 macrophages. In words: In vitro intracellular activity in infected THP-1 macrophages, S. aureus ATCC25923. It is filed as cell-based. The settings on record: for Emax (95% CI): decrease in log CFU after 24 hours compared to original inoculum. Here is the method: (§10) For studies of Plectasin, two strains of S. aureus were applied: ATCC25923 (MSSA) and E33235 (MSSA, axil, clinical isolate from Statens Serum Institute, Denmark).
as §1, §2, §3, §4, §5, §6, §7, §8, §9

The subject of data set [3] is Staphylococcus aureus MRSA (1-15479) in THP-1 macrophages. In words: In vitro intracellular activity in infected THP-1 macrophages, MRSA (1-15479). It counts as cell-based. The settings on record: for Cstatic / Emax (95% CI): MRSA (1-15479), THP-1 macrophages, 24 hours. Here is the method:
as §1, §2, §3, §4, §5, §6, §7, §8, §9

Data set [4] deals with Staphylococcus aureus E33235 (MSSA) in THP-1 macrophages. In words: In vitro intracellular activity in infected THP-1 macrophages, S. aureus E33235. The conditions noted are these: S. aureus E33235, THP-1 macrophages, 24 hours. It counts as cell-based. The method, then:
as §10, §2, §3
After 1 hour of incubation the infected cells were incubated 45 min with Gentamicin (50 micrograms/mL) to eradicate remaining non-phagocytosed bacteria. To remove Gentamicin after incubation cells were washed 3× with PBS. […]
Samples were diluted regarding to the expected amount of CFU and spread on TSA plates and incubated at 35° C. overnight. After 24 hours incubation the CFU were counted. […]
as §9

For data set [5], the system named is Staphylococcus aureus E33235. In words: Mouse peritonitis model, intra- and extracellular effect. It counts as in vivo, mice. The method, then: This Example presents an in vivo study of the efficacy of Plectasin against intracellular Staphylococcus aureus E33235 in an animal model of infection (peritonitis), including assessment of both intra- and extracellular effect. Staphylococcus aureus E33235 is a clinically isolated strain obtainable from Statens Serum Institut, Denmark.
Staphylococcus aureus E33235 was spread on 5% blood plates and incubated overnight at 37° C. at ambient air. A 10% w/v Mucin solution was prepared in NaCl. The solution was sterilized and pH adjusted to pH 7.0.
Colonies of Staphylococcus aureus were suspended in saline to approx. 10^8 CFU/mL (OD=0.13). A 1:1 dilution with the 10% Mucin stock solution was prepared making a solution of 5% Mucin and 5×10^7 CFU/mL.
A solution of 50 mg/mL lysostaphin was prepared in HBSS (Hanks Balanced Salt Solution).
Two hours before treatment (T=0) the mice were inoculated i.p. with 0.5 mL Staphylococcus aureus suspension (with 5% Mucin).
The injected dose volume was 0.6 or 0.3 mL/animal. The first dose was injected two hours after inoculation (T=2).
At T=2 and T=6 hours control animals were sacrificed and peritoneal wash performed. 24 hours after first treatment, the remaining treated animals were sacrificed. Peritoneal wash was performed after sacrifice of animals by cervical dislocation.
Negative control (cell free): Inoculum at 10^8 CFU/mL of S. aureus E 33235 (OD=0.13) in saline was prepared just before the last separation assay of the day. The negative control was handled exactly as the test samples. Microscopy and cell-count of the negative control are not shown. Each sample was handled as described in Table 6.
CFU counts from peritoneal fluid from treated animals were compared to PK/PD parameters to assess the correlation between intra- and extracellular effect of Plectasin to Cpeak, T>MIC and AUC/MIC.
Correlation (Hills) between the most predictive PK/PD-parameter. Effect was determined as the decrease in CFU in the peritoneal fluid 24 hours after the first treatment. Parameters were estimated by multiple regression analysis.

A short description of data set [6]: Kinetics study, serum, and PK/PD parameters of dosing regimens. It is filed as in vivo, mice. More on the design: AUC(free) / Peak / Cpeak: unit not given here. The settings on record: for AUC(free): free serum concentrations. The method, then: Animals were dosed from 4.25-34 mg/kg
The serum was separated and stored at −20° C. until analysis by LCMSMS using internal and external standards. Serum binding was calculated to 90%.
Pharmacokinetic parameters were determined through intrapolation from free serum concentrations using GraphPad Prism.

The mark [7] stands for this setting: S. aureus ATCC25923, THP-1 macrophages, 24 hours, no apparent growth.
Where [8] appears, read: S. aureus ATCC25923, THP-1 macrophages.
Setting [9] is: b.i.d. treatment with 34 mg/kg, peritoneal fluid, 24 hours after first treatment.
Where [10] appears, read: S. aureus ATCC25923, THP-1 macrophages, 24 hours, Table 1.

As for “Defensin2114: defensin polypeptide shown as SEQ ID NO: 1; synthetic defensin derived from Plectasin (GFGCNGPWNEDDLRCHNHCKSIKGYKGGYCAKGGFVCKCY)”, the “Emax comparison, one-way ANOVA (Tukeys test)” value is “No difference in Emax value between Defensin2114 and daptomycin” in data set [1] (VRSA); “significantly lower Emax value than both daptomycin and vancomycin” in data set [2] (ATCC25923); “significantly lower Emax value than vancomycin” in data set [3] (MRSA, P<0.01). Also, the Cstatic in data set [1] came out at 2.3 ×MIC; in data set [2] (setting [7]) it was 0.8 ×MIC; in data set [3], 1.1 ×MIC. Moreover, the “Emax (95% CI)” value in data set [1] is −0.22 log CFU; in data set [2] (setting [8]), −1.51 log CFU; in data set [3], −0.93 log CFU.
Turning to `CCCCCCCCCC(=O)N[C@@H](Cc1c[nH]c2ccccc12)C(=O)N[C@H](CC(N)=O)C(=O)N[C@@H](CC(=O)O)C(=O)N[C@@H]1C(=O)NCC(=O)N[C@@H](CCCN)C(=O)N[C@@H](CC(=O)O)C(=O)N[C@H](C)C(=O)N[C@@H](CC(=O)O)C(=O)NCC(=O)N[C@H](CO)C(=O)N[C@@H]([C@H](C)CC(=O)O)C(=O)N[C@@H](CC(=O)c2ccccc2N)C(=O)O[C@@H]1C` [Daptomycin, reference compound], the figures for the Cstatic in data set [1], in data set [2] (setting [7]) and in data set [3] were 1.3 ×MIC, 0.6 ×MIC and 1.8 ×MIC, respectively. For the same compound, the “Emax (95% CI)” value in data set [1] is −0.29 log CFU; in data set [2] (setting [8]), −1.00 log CFU; in data set [3], −0.85 log CFU.
Take `CN[C@H](CC(C)C)C(=O)N[C@H]1C(=O)N[C@@H](CC(N)=O)C(=O)N[C@H]2C(=O)N[C@H]3C(=O)N[C@H](C(=O)N[C@H](C(=O)O)c4cc(O)cc(O)c4-c4cc3ccc4O)[C@H](O)c3ccc(c(Cl)c3)Oc3cc2cc(c3O[C@@H]2O[C@H](CO)[C@@H](O)[C@H](O)[C@H]2O[C@H]2C[C@](C)(N)[C@H](O)[C@H](C)O2)Oc2ccc(cc2Cl)[C@H]1O` [Vancomycin, reference compound]: the Cstatic in data set [2] (setting [7]) is reported as 2.9 ×MIC; in data set [3], 6.2 ×MIC. The “Emax (95% CI)” value in data set [2] (setting [8]) was −0.64 log CFU; in data set [3], −0.66 log CFU.
With `CC[C@H](C)[C@@H]1NC(=O)[C@H](CO)NC(=O)[C@H](CCCCN)NC(=O)[C@@H]2CSSC[C@@H](C(=O)N[C@@H](Cc3ccc(O)cc3)C(=O)O)NC(=O)[C@H](CCCCN)NC(=O)[C@@H]3CSSC[C@H](NC(=O)[C@H](CCC(N)=O)NC(=O)[C@H](CCSC)NC(=O)[C@H](CC(=O)O)NC(=O)[C@H](CC(=O)O)NC(=O)[C@H](CCC(=O)O)NC(=O)[C@H](CC(=O)O)NC(=O)[C@H](Cc4c[nH]c5ccccc45)NC(=O)[C@@H]4CCCN4C(=O)CNC(=O)[C@H](CC(N)=O)NC(=O)[C@@H](NC(=O)CNC(=O)[C@H](Cc4ccccc4)NC(=O)CN)CSSC[C@H](NC(=O)[C@H](Cc4ccc(O)cc4)NC(=O)CNC(=O)CNC(=O)[C@H](CCCCN)NC(=O)[C@H](Cc4ccc(O)cc4)NC(=O)CNC(=O)[C@H](CCCCN)NC1=O)C(=O)N[C@@H](C)C(=O)N[C@@H](CCCCN)C(=O)NCC(=O)NCC(=O)N[C@@H](Cc1ccccc1)C(=O)N[C@@H](C(C)C)C(=O)N3)C(=O)N[C@@H](Cc1c[nH]cn1)C(=O)N[C@@H](CC(N)=O)C(=O)N[C@@H](Cc1c[nH]cn1)C(=O)N2` [Plectasin], the Cstatic in data set [4] and in data set [2] (setting [10]) was 0.6 ×MIC throughout. The “Emax (CI)” value is on record as −0.97 log CFU in data set [4] and −1.35 log CFU in data set [2] (setting [10]). Also, the “Max Δ log Decrease in CFU Extracellularly” value in data set [5] (setting [9]) is on record as −2.55 (SD: 0.150) Δ log. The “Max Δ log Decrease in CFU Intracellularly” value in data set [5] (setting [9]) is on record as −1.25 (SD: 0.058) Δ log. Moreover, the “effect in the mouse peritonitis model” value in data set [5] (s.c. treatment, S. aureus E33235 i.p.) is “showed both intra- and extracellular effect”. For the same compound, the Peak in data set [6] (dose 4.25 mg/kg) was 1.61; in data set [6] (dose 8.5 mg/kg), 2.32; in data set [6] (dose 17 mg/kg), 4.95; in data set [6] (dose 34 mg/kg), 5.99. Besides, the “AUC(free)” value is 1.901 in data set [6] (dose 4.25 mg/kg), 3.955 in data set [6] (dose 8.5 mg/kg), 8 in data set [6] (dose 17 mg/kg) and 13.25 in data set [6] (dose 34 mg/kg). For the same compound, the fraction unbound in data set [6] (mouse, serum, LCMSMS, read-out: Serum binding (converted)) was 0.1. Besides, the Cpeak amounted to 5.99 in data set [6] (regimen 1: 34 mg/kg, 1 dose in 24 hours); 4.95 in data set [6] (regimen 2: 17 mg/kg, 1 dose in 24 hours); 2.32 in data set [6] (regimen 3: 8.5 mg/kg, 1 dose in 24 hours); 1.61 in data set [6] (regimen 4: 4.25 mg/kg, 1 dose in 24 hours); 5.99 in data set [6] (regimen 5: 17 mg/kg, 2 doses in 24 hours); 2.32 in data set [6] (regimen 6: 8.5 mg/kg, 2 doses in 24 hours). The Cpeak in data set [6] (regimen 7: 34 mg/kg, 3 doses in 24 hours) amounted to 5.99; in data set [6] (regimen 8: 4.25 mg/kg, 3 doses in 24 hours), 1.61; in data set [6] (regimen 9: 8.5 mg/kg, 4 doses in 24 hours), 2.32; in data set [6] (regimen 10: 8.5 mg/kg, 6 doses in 24 hours), 2.32.

Values taken from US20100105602A1, “TREATMENT OF INT[…] INFECTIONS” (Novozymes A/S, priority 2008, published 2010).
